Experimental data from PubChem BioAssay (NCI).
Values joined by “and” are separate entries in the source; they are usually repeats but may differ in a detail not shown here. Equal values may be shown once.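 Tested at 5 concentrations; 48 h exposure; 96-well plates; endpoints linearly interpolated, else capped at highest concentration. GI50 = concentration required for 50% inhibition of growth. The concentration for full growth arrest is given as TGI.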

What was measured:
Assay in all cases: NCI anticancer screen, dose series, 48 h
HCT-116 colon = tested on: HCT-116 colon
CAKI-1 renal = tested on: CAKI-1 renal
PC-3 prostate = tested on: PC-3 prostate
CCRF-CEM leukemia = tested on: CCRF-CEM leukemia
MDA-MB-231 breast = tested on: MDA-MB-231 breast
U251 CNS = tested on: U251 CNS
MALME-3M melanoma = tested on: MALME-3M melanoma
SF-539 CNS = tested on: SF-539 CNS
HOP-62 NSCLC = tested on: HOP-62 NSCLC
A498 renal = tested on: A498 renal
RPMI-8226 leukemia = tested on: RPMI-8226 leukemia

O=[N+]([O-])C(=C(N1CCOCC1)N1CCOCC1)/C(Cl)=C(\Cl)[N+](=O)[O-]
TGI (HCT-116 colon): 4.28 µM
TGI (CAKI-1 renal): 3.04 µM
TGI (PC-3 prostate): 32.6 µM
TGI (CCRF-CEM leukemia): 96.8 µM
TGI (MDA-MB-231 breast): 10.1 µM
TGI (U251 CNS): 37.8 µM
TGI (MALME-3M melanoma): 3.24 µM
TGI (SF-539 CNS): 23.8 µM
TGI (HOP-62 NSCLC): 29.8 µM
TGI (A498 renal): 36.1 µM

Cn1c2nc3ccccc3c-2cc2ccccc21
GI50 (HCT-116 colon): 1.8 µM and 4.57 µM
TGI (HCT-116 colon): > 100 µM
GI50 (CAKI-1 renal): 2.6 µM and 5.52 µM
TGI (CAKI-1 renal): 8.7 µM and 37.1 µM
TGI (PC-3 prostate): > 45.9 µM and 23.6 µM
TGI (CCRF-CEM leukemia): > 43.5 µM and 25 µM
GI50 (MDA-MB-231 breast): 5.58 µM and 11.6 µM
TGI (MDA-MB-231 breast): > 60.7 µM and 33.1 µM
GI50 (U251 CNS): 4.17 µM and 8.75 µM
TGI (U251 CNS): > 53.5 µM and 32.4 µM
GI50 (MALME-3M melanoma): 2.86 µM and 18.5 µM
TGI (MALME-3M melanoma): 12.8 µM and > 100 µM
GI50 (RPMI-8226 leukemia): 2.45 µM and 7.55 µM
TGI (RPMI-8226 leukemia): 10.2 µM and 39 µM
TGI (SF-539 CNS): 16 µM and 17.5 µM
GI50 (A498 renal): 5.12 µM and 18.4 µM
TGI (A498 renal): 17.1 µM and 43.5 µM

COc1ccc(CN(CCc2c[nH]c3ccccc23)Cc2ccc(OC)cc2)cc1
TGI (CAKI-1 renal): > 30.2 µM
TGI (PC-3 prostate): 13 µM
TGI (CCRF-CEM leukemia): > 100 µM
TGI (MALME-3M melanoma): 8.82 µM
TGI (RPMI-8226 leukemia): > 41.9 µM
TGI (SF-539 CNS): 3.14 µM
TGI (HOP-62 NSCLC): 11.3 µM
TGI (A498 renal): 9.3 µM

CCOC(=O)c1nc2ccc(C(F)(F)F)cc2nc1Oc1ccc(F)cc1
TGI (HCT-116 colon): > 100 µM
TGI (CAKI-1 renal): > 100 µM
TGI (PC-3 prostate): > 100 µM
TGI (CCRF-CEM leukemia): > 100 µM
TGI (MDA-MB-231 breast): > 100 µM
TGI (U251 CNS): > 100 µM
TGI (RPMI-8226 leukemia): > 100 µM
TGI (SF-539 CNS): > 100 µM
TGI (HOP-62 NSCLC): > 100 µM
TGI (A498 renal): > 100 µM

NC1=NC(OCC2(CO)CCC2)C=C(NCC2(CO)CCC2)N1 (stereo not drawn)
TGI (HCT-116 colon): > 100 µM
TGI (CAKI-1 renal): > 100 µM
TGI (PC-3 prostate): > 100 µM
TGI (CCRF-CEM leukemia): > 100 µM
TGI (MDA-MB-231 breast): > 100 µM
TGI (U251 CNS): > 100 µM
TGI (MALME-3M melanoma): > 100 µM
TGI (RPMI-8226 leukemia): > 100 µM
TGI (HOP-62 NSCLC): > 100 µM
TGI (A498 renal): > 100 µM

CC(=O)Nc1ccc2c(C)c3c4ccccc4n(C)c3nc2n1
TGI (HCT-116 colon): 44.6 µM
TGI (CAKI-1 renal): > 100 µM
TGI (PC-3 prostate): > 100 µM
TGI (CCRF-CEM leukemia): 80.5 µM
TGI (MDA-MB-231 breast): 41.2 µM
TGI (SF-539 CNS): 77.6 µM
TGI (HOP-62 NSCLC): 94.8 µM
TGI (A498 renal): 46.2 µM

Cc1cc(Cl)ccc1N=NC(=O)NNc1ccc(Cl)cc1C
TGI (HCT-116 colon): 26.7 µM
TGI (PC-3 prostate): 22.8 µM
TGI (CCRF-CEM leukemia): 58.5 µM
TGI (MDA-MB-231 breast): 26.6 µM
TGI (U251 CNS): 31.4 µM
TGI (MALME-3M melanoma): 37.9 µM
TGI (RPMI-8226 leukemia): 89.4 µM
TGI (HOP-62 NSCLC): 23.9 µM
TGI (A498 renal): 21.8 µM

O=C(CCCn1ccnc1[N+](=O)[O-])NCCn1ccnc1
TGI (HCT-116 colon): > 100 µM
TGI (CAKI-1 renal): > 100 µM
TGI (PC-3 prostate): > 100 µM
TGI (CCRF-CEM leukemia): > 100 µM
TGI (MDA-MB-231 breast): > 100 µM
TGI (U251 CNS): > 100 µM
TGI (MALME-3M melanoma): > 100 µM
TGI (SF-539 CNS): > 100 µM
TGI (HOP-62 NSCLC): > 100 µM
TGI (A498 renal): > 100 µM

O=S1(=O)CCN(Cc2ccccc2)/C1=N\S(=O)(=O)c1ccc(Cl)cc1
TGI (HCT-116 colon): 33 µM
TGI (CAKI-1 renal): 33.2 µM
TGI (PC-3 prostate): 36.7 µM
TGI (CCRF-CEM leukemia): 85.5 µM
TGI (MDA-MB-231 breast): > 100 µM
TGI (U251 CNS): 33.5 µM
TGI (RPMI-8226 leukemia): 79 µM
TGI (SF-539 CNS): 36.1 µM
TGI (HOP-62 NSCLC): > 100 µM
TGI (A498 renal): 73.5 µM

CC1[C@@H](OCc2ccccc2)COC(=O)N1Cc1ccccc1 (stereo partly drawn)
TGI (HCT-116 colon): > 100 µM
TGI (PC-3 prostate): > 100 µM
TGI (CCRF-CEM leukemia): > 100 µM
TGI (MDA-MB-231 breast): > 100 µM
TGI (U251 CNS): > 100 µM
TGI (MALME-3M melanoma): > 100 µM
TGI (RPMI-8226 leukemia): > 100 µM
TGI (HOP-62 NSCLC): > 100 µM

CN(C)CCNc1ccc2c(=O)n(CCN(C)C)c(=O)n3c4ccc(N)cc4c(=O)c1c23
TGI (HCT-116 colon): 0.166 µM
TGI (CAKI-1 renal): 4.76 µM
TGI (PC-3 prostate): 0.477 µM
TGI (CCRF-CEM leukemia): 0.16 µM
TGI (MDA-MB-231 breast): 0.866 µM
TGI (U251 CNS): 0.988 µM
TGI (MALME-3M melanoma): 0.352 µM
TGI (SF-539 CNS): 0.482 µM
TGI (HOP-62 NSCLC): 1.15 µM
TGI (A498 renal): 2.37 µM

CC1C[C@]2(C)C(=S)Nc3ccccc3[C@@H]2Nc2ccccc21 (stereo partly drawn)
TGI (HCT-116 colon): 26.7 µM
TGI (CAKI-1 renal): 79 µM
TGI (PC-3 prostate): 35.7 µM
TGI (CCRF-CEM leukemia): 54.4 µM
TGI (MDA-MB-231 breast): 26.3 µM
TGI (MALME-3M melanoma): 30.8 µM
TGI (RPMI-8226 leukemia): > 100 µM
TGI (SF-539 CNS): 34.2 µM
TGI (HOP-62 NSCLC): 31.8 µM
TGI (A498 renal): 36.3 µM

Cc1c2c(n(CCc3ccccc3)c1C)NN=C(C#N)S2(=O)=O
TGI (HCT-116 colon): > 100 µM
TGI (PC-3 prostate): > 100 µM
TGI (MDA-MB-231 breast): > 100 µM
TGI (U251 CNS): > 100 µM
TGI (MALME-3M melanoma): > 100 µM
TGI (RPMI-8226 leukemia): > 100 µM
TGI (SF-539 CNS): > 100 µM
TGI (HOP-62 NSCLC): > 100 µM

O=C1N=C(c2ccccc2)O/C1=C\c1ccccc1
TGI (HCT-116 colon): > 100 µM
TGI (CAKI-1 renal): > 100 µM
TGI (PC-3 prostate): > 100 µM
TGI (MDA-MB-231 breast): > 100 µM
TGI (U251 CNS): > 100 µM
TGI (MALME-3M melanoma): > 100 µM
TGI (RPMI-8226 leukemia): > 100 µM
TGI (SF-539 CNS): > 100 µM
TGI (HOP-62 NSCLC): > 100 µM
TGI (A498 renal): > 100 µM

CC1(O)/C(=N/O)CC2CC1C2(C)C (stereo not drawn)
TGI (CCRF-CEM leukemia): > 100 µM
TGI (MDA-MB-231 breast): > 100 µM
TGI (U251 CNS): > 100 µM
TGI (MALME-3M melanoma): > 100 µM
TGI (RPMI-8226 leukemia): > 100 µM

CSc1cc(Cl)c(C)cc1S(=O)(=O)NC(=O)NNc1ccc(F)c(Cl)c1
TGI (HCT-116 colon): > 100 µM
TGI (CAKI-1 renal): > 100 µM
TGI (PC-3 prostate): > 100 µM
TGI (CCRF-CEM leukemia): > 100 µM
TGI (MDA-MB-231 breast): > 100 µM
TGI (U251 CNS): > 100 µM
TGI (MALME-3M melanoma): > 100 µM
TGI (SF-539 CNS): > 100 µM
TGI (HOP-62 NSCLC): > 100 µM
TGI (A498 renal): > 100 µM

C=C(C)[C@@H]1CC[C@]2(C(=O)O)CC[C@]3(C)[C@H](CC[C@@H]4[C@@]5(C)CC[C@H](C(=O)/C=C/c6ccc(O)cc6)C(C)(C)[C@@H]5CC[C@]43C)[C@@H]12
TGI (HCT-116 colon): > 100 µM
TGI (CAKI-1 renal): 9.43 µM
TGI (PC-3 prostate): 19 µM
TGI (CCRF-CEM leukemia): 23.6 µM
TGI (MDA-MB-231 breast): 23 µM
TGI (U251 CNS): > 100 µM
TGI (MALME-3M melanoma): 70.1 µM
TGI (SF-539 CNS): 20.3 µM
TGI (HOP-62 NSCLC): 27.8 µM
TGI (A498 renal): 26.5 µM

CNC(=O)c1n[nH][nH]c1=O
TGI (HCT-116 colon): > 100 µM
TGI (CAKI-1 renal): > 100 µM
TGI (PC-3 prostate): > 100 µM
TGI (CCRF-CEM leukemia): > 100 µM
TGI (MDA-MB-231 breast): > 100 µM
TGI (U251 CNS): > 100 µM
TGI (MALME-3M melanoma): > 100 µM
TGI (RPMI-8226 leukemia): > 100 µM
TGI (HOP-62 NSCLC): > 100 µM
TGI (A498 renal): > 100 µM

COC1OC(CO)C(O)C(OC(=O)c2cc(O)c(O)c(O)c2)C1OC(=O)c1cc(O)c(O)c(O)c1 (stereo not drawn)
TGI (HCT-116 colon): > 100 µM
TGI (CAKI-1 renal): > 100 µM
TGI (PC-3 prostate): > 100 µM
TGI (CCRF-CEM leukemia): > 100 µM
TGI (MDA-MB-231 breast): > 100 µM
TGI (U251 CNS): > 100 µM
TGI (MALME-3M melanoma): > 100 µM
TGI (RPMI-8226 leukemia): > 100 µM
TGI (SF-539 CNS): > 100 µM
TGI (HOP-62 NSCLC): > 100 µM

CCCCCc1c2nc(c(CCCCC)c3ccc([nH]3)c(CCCCC)c3ccc([nH]3)c(CCCCC)c3nc1C=C3)C=C2
TGI (HCT-116 colon): > 100 µM
TGI (CAKI-1 renal): > 100 µM
TGI (PC-3 prostate): > 100 µM
TGI (CCRF-CEM leukemia): > 100 µM
TGI (MDA-MB-231 breast): > 100 µM
TGI (U251 CNS): > 100 µM
TGI (MALME-3M melanoma): > 100 µM
TGI (RPMI-8226 leukemia): > 100 µM
TGI (SF-539 CNS): > 100 µM
TGI (HOP-62 NSCLC): > 100 µM

CC(=O)OC1COC(n2c(N)c(C#N)c(C)c(C#N)c2=S)C(OC(C)=O)C1OC(C)=O (stereo not drawn)
TGI (CAKI-1 renal): > 100 µM
TGI (PC-3 prostate): > 100 µM
GI50 (CCRF-CEM leukemia): > 100 µM and 32 µM
TGI (CCRF-CEM leukemia): > 100 µM
TGI (MDA-MB-231 breast): > 100 µM
TGI (MALME-3M melanoma): > 100 µM
TGI (RPMI-8226 leukemia): > 100 µM
TGI (SF-539 CNS): > 100 µM
TGI (HOP-62 NSCLC): > 100 µM
TGI (A498 renal): > 100 µM
